Assay results from US10048243B2, “Automatic water quality surveillance apparatus” (priority 2016, dated 2018).

Assays:
[1] = test system: fish reared within the water tank for fish; assay type: in vivo; conditions: for effect on the fish: in vivo; for damage or injury of the fish caused by the pollution: small amount
From the text: This is because the oil keeps floating on a water surface thereof.
In this context, the present inventor has confirmed according to tests that the conventional automatic water quality surveillance apparatus with fish cannot sense the oil and/or the mold odor substances based on abnormal behavior of the fish.

cyprinodonts = test system: cyprinodonts; set-up: species or system Oryzias latipes; conditions: in vivo
From the text: Referring to FIG. 10, it is clear that the cyprinodonts 4e take unique action based on the kind of toxic substances.
In order to solve the problems, the present inventor has further devised a method including: putting a plurality (for example, 20) of cyprinodonts 4e into the water tank for fish 4d; photographing the cyprinodonts 4e by means of the CCD video camera 1 in a direction of bird's-eye to output data; and analyzing the data with the image processing device 1b.
In order to solve the problem of photographing one cyprinodont from the side wall, the inventor has performed: changing the side photographing system shown in FIG. 10 to the bird's-eye photographing system shown in FIG. 11; using the more (about 20) cyprinodonts; and developing new algorithm. In this way, the present inventor has solved the problem in recent years.
Furthermore, the present inventor has developed algorithm of issuing an alarm in this state.
When about 2 [ppm] concentration of potassium cyanide is contained in the raw water, the cyprinodonts 4e swim weakly toward a water flow to be carried away, thereby being latched by the capture net 4f.

| SMILES | effect on the fish [1] | damage or injury of the fish caused by the pollution [1] | organ system of cyprinodonts damaged (cyprinodonts) | unique action taken by cyprinodonts (cyprinodonts) |
| --- | --- | --- | --- | --- |
| CC1(C)[C@@H]2CC[C@@]1(C)[C@](C)(O)C2 [2-MIB, 2-methylisoborneol] | hardly affect the fish | neither to be damaged nor to be injured | – | – |
| COP(=S)(OC)Oc1ccc([N+](=O)[O-])c(C)c1 [Fenitrothion] | – | – | damages nervous systems | madly-rushing action |
| CC1CCCC2(C)CCCCC12O (stereo not drawn) [geosmin] | hardly affect the fish | neither to be damaged nor to be injured | – | – |
